Measurements taken from ChEMBL document CHEMBL1201862, “PubChem BioAssay data set” (2004).
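Method: 48-hour compound exposure of cells in 96-well plates, five concentrations, linear interpolation of endpoints. At the GI50, growth is halved.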 Active and inactive are the calls of the source. No stated cut-off is given here; in the data, active = GI50 up to about 1.1 µM and inactive = higher.

How the values were obtained:
Assay in all cases: DTP human tumour cell line panel, 48 h
[1] = tested on: BT-549
[2] = tested on: CCRF-CEM
[3] = tested on: EKVX
[4] = tested on: HT-29
[5] = tested on: Hs-578T
[6] = tested on: IGROV-1
[7] = tested on: M14
[8] = tested on: MDA-MB-231
[9] = tested on: MDA-MB-435
[10] = tested on: Malme-3M
[11] = tested on: NCI-H23
[12] = tested on: OVCAR-8
[13] = tested on: SK-MEL-2
[14] = tested on: SK-MEL-5
[15] = tested on: SK-OV-3
[16] = tested on: SNB-19
[17] = tested on: SNB-75
[18] = tested on: T47D
[19] = tested on: MCF7

| Structure (SMILES) | GI50 [1] | GI50 [2] | GI50 [3] | GI50 [4] | GI50 [5] | GI50 [6] | GI50 [7] | GI50 [8] | GI50 [9] | GI50 [10] | GI50 [11] | GI50 [12] | GI50 [13] | GI50 [14] | GI50 [15] | GI50 [16] | GI50 [17] | GI50 [18] | GI50 [19] |
| --- | --- | --- | --- | --- | --- | --- | --- | --- | --- | --- | --- | --- | --- | --- | --- | --- | --- | --- | --- |
| CCCc1c(O)nc(Nc2nc3ccccc3[nH]2)[nH]c1=O | > 100 µM (inactive) | 86.5 µM (inactive) | > 100 µM (inactive) | > 100 µM (inactive) | > 100 µM (inactive) | > 100 µM (inactive) | > 100 µM (inactive) | > 100 µM (inactive) | > 100 µM (inactive) | > 100 µM (inactive) | > 100 µM (inactive) | > 100 µM (inactive) | > 100 µM (inactive) | > 100 µM (inactive) | > 100 µM (inactive) | > 100 µM (inactive) | > 100 µM (inactive) | > 100 µM (inactive) | – |
| Nc1nc(NNc2ccc(Cl)c(Cl)c2)cc(=O)[nH]1 | 33.7 µM (inactive) | 36.4 µM (inactive) | 39.2 µM (inactive) | 34.4 µM (inactive) | 30.5 µM (inactive) | 28.4 µM (inactive) | 34.2 µM (inactive) | 33.8 µM (inactive) | 25.4 µM (inactive) | 46.9 µM (inactive) | 34 µM (inactive) | 44.9 µM (inactive) | – | 33.4 µM (inactive) | – | 72.6 µM (inactive) | – | – | 17.3 µM (inactive) |
| CC12CCC(C(=O)OC1=O)C2(C)C (stereo not drawn) | – | > 100 µM (inactive) | – | > 100 µM (inactive) | > 100 µM (inactive) | > 100 µM (inactive) | > 100 µM (inactive) | > 100 µM (inactive) | > 100 µM (inactive) | > 100 µM (inactive) | 1.67 µM (inactive) | > 100 µM (inactive) | 28.7 µM (inactive) | – | > 100 µM (inactive) | > 100 µM (inactive) | 82.4 µM (inactive) | > 100 µM (inactive) | > 100 µM (inactive) |
| Cc1occc1C(=S)Nc1ccc(Cl)c(C(=O)OC(C(C)C)C(C)C)c1 | 16.6 µM (inactive) | 7.16 µM (inactive) | 8 µM (inactive) | 14.1 µM (inactive) | 17.6 µM (inactive) | 15.2 µM (inactive) | 12.7 µM (inactive) | 12.6 µM (inactive) | 15.1 µM (inactive) | 12 µM (inactive) | 8.15 µM (inactive) | 13.3 µM (inactive) | 16.5 µM (inactive) | 14.6 µM (inactive) | 18.4 µM (inactive) | 21.3 µM (inactive) | – | 4.49 µM (inactive) | 13.1 µM (inactive) |
| Clc1ccc(/N=c2\oc3ccccc3cc2-c2nc3ccccc3[nH]2)c(Cl)c1 | > 100 µM (inactive) | > 100 µM (inactive) | 51.2 µM (inactive) | > 100 µM (inactive) | 34.2 µM (inactive) | > 100 µM (inactive) | > 100 µM (inactive) | – | > 100 µM (inactive) | > 100 µM (inactive) | 78.5 µM (inactive) | > 100 µM (inactive) | – | – | 49.9 µM (inactive) | > 100 µM (inactive) | – | > 100 µM (inactive) | – |
| N#CNCC(COCc1ccccc1)c1ccccc1 (stereo not drawn) | – | > 100 µM (inactive) | > 100 µM (inactive) | – | – | > 100 µM (inactive) | > 100 µM (inactive) | – | – | > 100 µM (inactive) | > 100 µM (inactive) | > 100 µM (inactive) | 43.5 µM (inactive) | 49.2 µM (inactive) | > 100 µM (inactive) | > 100 µM (inactive) | 41.9 µM (inactive) | – | – |
| COC(=O)Cc1c(C2C(CC(=O)OC)c3ccccc3N2C2OC(CO)C(O)C(O)C2O)[nH]c2ccccc12 (stereo not drawn) | > 100 µM (inactive) | > 100 µM (inactive) | > 100 µM (inactive) | > 100 µM (inactive) | – | > 100 µM (inactive) | > 100 µM (inactive) | > 100 µM (inactive) | > 100 µM (inactive) | > 100 µM (inactive) | > 100 µM (inactive) | – | > 100 µM (inactive) | > 100 µM (inactive) | > 100 µM (inactive) | > 100 µM (inactive) | > 100 µM (inactive) | – | – |
| CCOC(=O)C(Cc1cn(C(C)=O)c2ccccc12)P(=O)(OCC)OCC (stereo not drawn) | – | – | – | > 100 µM (inactive) | > 100 µM (inactive) | > 100 µM (inactive) | > 100 µM (inactive) | > 100 µM (inactive) | > 10 µM (inactive) | – | > 100 µM (inactive) | > 100 µM (inactive) | > 100 µM (inactive) | > 100 µM (inactive) | > 100 µM (inactive) | > 100 µM (inactive) | > 100 µM (inactive) | > 100 µM (inactive) | – |
| COC(=O)c1ccc(C)cc1C1CN=NC12Cc1cc(C)c(C)cc1C2=O (stereo not drawn) | – | 31 µM (inactive) | 24.3 µM (inactive) | 25.3 µM (inactive) | 46.5 µM (inactive) | > 100 µM (inactive) | 35.4 µM (inactive) | 27 µM (inactive) | 24.9 µM (inactive) | 30.5 µM (inactive) | 40.6 µM (inactive) | 65 µM (inactive) | – | 14.9 µM (inactive) | – | 42.4 µM (inactive) | 35.9 µM (inactive) | – | 38.7 µM (inactive) |
| O=c1[nH]c(=O)n(COCc2ccccc2)cc1Nc1ccc(Br)cc1 | > 100 µM (inactive) | > 100 µM (inactive) | > 100 µM (inactive) | > 100 µM (inactive) | > 100 µM (inactive) | 0.51 µM (active) | > 100 µM (inactive) | – | > 100 µM (inactive) | – | > 100 µM (inactive) | – | – | > 100 µM (inactive) | – | > 100 µM (inactive) | – | – | > 100 µM (inactive) |
| COC(=O)C(Cc1c[nH]c2ccccc12)NC(=O)C(Cc1c[nH]cn1)NC(=O)C1CCC(=O)N1C(=O)OCc1ccccc1 (stereo not drawn) | > 100 µM (inactive) | > 100 µM (inactive) | > 100 µM (inactive) | > 100 µM (inactive) | > 100 µM (inactive) | > 100 µM (inactive) | > 100 µM (inactive) | – | – | > 100 µM (inactive) | > 100 µM (inactive) | > 100 µM (inactive) | > 100 µM (inactive) | > 100 µM (inactive) | – | > 100 µM (inactive) | > 100 µM (inactive) | 5.13 µM (inactive) | > 100 µM (inactive) |
| CCOC(=O)c1cc(Sc2ccc(N)c(C(=O)OCC)c2)ccc1N | > 100 µM (inactive) | 28 µM (inactive) | 13.5 µM (inactive) | 28.8 µM (inactive) | 21.5 µM (inactive) | 18.6 µM (inactive) | > 100 µM (inactive) | 14.4 µM (inactive) | – | 11.6 µM (inactive) | 25.3 µM (inactive) | 20.7 µM (inactive) | > 100 µM (inactive) | > 100 µM (inactive) | > 100 µM (inactive) | > 100 µM (inactive) | 12.3 µM (inactive) | > 100 µM (inactive) | 13.2 µM (inactive) |
| N#CC12CC(C=O)=C(N)C1(C#N)CC(C=O)=C2N (stereo not drawn) | – | 36.7 µM (inactive) | > 100 µM (inactive) | > 100 µM (inactive) | 34 µM (inactive) | 71.9 µM (inactive) | 35.9 µM (inactive) | > 100 µM (inactive) | 36.1 µM (inactive) | 50.8 µM (inactive) | 28.3 µM (inactive) | 63.7 µM (inactive) | 24.1 µM (inactive) | 20.8 µM (inactive) | > 100 µM (inactive) | 52.8 µM (inactive) | 44.4 µM (inactive) | 37.8 µM (inactive) | 58.9 µM (inactive) |
| O=C(C#CP(=O)(O)c1ccccc1)c1ccccc1 | – | – | > 100 µM (inactive) | > 100 µM (inactive) | > 100 µM (inactive) | > 100 µM (inactive) | > 100 µM (inactive) | – | > 100 µM (inactive) | > 100 µM (inactive) | > 100 µM (inactive) | > 100 µM (inactive) | > 100 µM (inactive) | > 100 µM (inactive) | > 100 µM (inactive) | > 100 µM (inactive) | > 100 µM (inactive) | > 100 µM (inactive) | > 100 µM (inactive) |
| FC(F)(Sc1ncccn1)c1nc2ccccc2o1 | > 100 µM (inactive) | 33.5 µM (inactive) | – | > 100 µM (inactive) | – | > 100 µM (inactive) | > 100 µM (inactive) | > 100 µM (inactive) | 99.1 µM (inactive) | > 100 µM (inactive) | > 100 µM (inactive) | > 100 µM (inactive) | > 100 µM (inactive) | > 100 µM (inactive) | > 100 µM (inactive) | – | 22 µM (inactive) | > 100 µM (inactive) | > 100 µM (inactive) |
| C=C(CCOC)CCC1CCCCC(=C)[C@H]1OC(C)=O (stereo partly drawn) | – | > 100 µM (inactive) | > 100 µM (inactive) | > 100 µM (inactive) | > 100 µM (inactive) | > 100 µM (inactive) | > 100 µM (inactive) | > 100 µM (inactive) | > 100 µM (inactive) | – | 93.8 µM (inactive) | > 100 µM (inactive) | > 100 µM (inactive) | 63.2 µM (inactive) | > 100 µM (inactive) | > 100 µM (inactive) | > 100 µM (inactive) | > 100 µM (inactive) | > 100 µM (inactive) |
| Cc1ccc(NC(=O)CC(=O)n2nc(C)c(/N=N/c3ccc(S(=O)(=O)CCOS(=O)(=O)O)cc3)c2C)cc1 | – | > 100 µM (inactive) | > 100 µM (inactive) | > 100 µM (inactive) | > 100 µM (inactive) | > 100 µM (inactive) | > 100 µM (inactive) | > 100 µM (inactive) | > 100 µM (inactive) | > 100 µM (inactive) | > 100 µM (inactive) | > 100 µM (inactive) | > 100 µM (inactive) | > 100 µM (inactive) | > 100 µM (inactive) | > 100 µM (inactive) | > 100 µM (inactive) | > 100 µM (inactive) | > 100 µM (inactive) |
